As a reminder, the IC50 is the point on the concentration scale where inhibition reaches its midpoint. A lower IC50 goes with inhibition by little substance. By melting point is commonly meant the temperature, or range, at which the solid turns liquid.

Here are results for 3 compounds from US20050250820A1, “Therapeutic modulation of PPARgamma activity” (Amgen Inc., priority 2004, published 2005).

Molecules are shown by their SMILES. Where only a bound is given, the exact number is not on record here.

One series addresses T1, PPARγ (UniProt P37231).
T1 construct: fused on or other part: GST tag fused to PPARgamma, used for capture on glutathione beads
T1 sequence (P37231 1-505): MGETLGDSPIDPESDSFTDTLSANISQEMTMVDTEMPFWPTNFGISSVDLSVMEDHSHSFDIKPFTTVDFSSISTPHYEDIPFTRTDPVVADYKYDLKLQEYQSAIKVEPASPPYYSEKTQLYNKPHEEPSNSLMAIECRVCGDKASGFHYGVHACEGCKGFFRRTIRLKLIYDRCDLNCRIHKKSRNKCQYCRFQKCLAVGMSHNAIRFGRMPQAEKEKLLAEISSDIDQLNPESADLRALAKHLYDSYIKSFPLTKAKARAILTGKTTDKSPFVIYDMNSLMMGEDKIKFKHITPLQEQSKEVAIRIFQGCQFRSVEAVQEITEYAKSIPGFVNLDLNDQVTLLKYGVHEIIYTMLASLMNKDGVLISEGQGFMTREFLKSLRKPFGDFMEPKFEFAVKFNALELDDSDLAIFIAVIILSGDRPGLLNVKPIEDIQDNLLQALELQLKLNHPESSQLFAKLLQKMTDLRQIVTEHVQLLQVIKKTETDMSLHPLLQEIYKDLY
Nature of the series: PPARγ ligand binding assay utilizing [3H]-BRL 49653 as the radioligand. The following applies: concentration required to reduce specific binding by 50%. The source says:
The compounds for use according to the present invention can be evaluated for modulation of the PPARγ receptor using assays such as those described in Jiang, et al., Nature 391:82-86 (1998), Ricote, et al., Nature 391:79-82 (1998) and Lehmann, et al., J. Biol. Chem. 270(12): 12953-12956 (1995). Alternatively, the compounds for use according to the invention can be evaluated for their ability to displace radiolabeled BRL 49653 from a PPARγ-GST fusion protein as follows:
PPAR-γ-GST fusion protein (prepared according to standard procedures), [^3H]-BRL 49653 having 50 Ci/mmol specific activity, Polyfiltronics Unifilter 350 filtration plate and glutathione-Sepharose® beads (from Pharmacia: washed twice with 10× binding buffer in which BSA and DTI can be left out).
Binding buffer (10 mM Tris-HCl, pH 8.0, 50 mM KCl, 10 mM DTT, 0.02% BSA and 0.01% NP-40) is added in 80 microliter amounts to the wells of the filtration plate. The test compound is then added in 10 microliters of DMSO. The PPARy-GST fusion protein and radiolabeled BRL compound are premixed in binding buffer containing 10 mM DTT and added in 10 microliter amounts to the wells of the plate to provide final concentrations of 1 μg/well of PPAR-γ-GST fusion protein and 10 nM [^3H]-BRL 49653 compound. The plate is incubated for 15 minutes. Glutathione-agarose bead is added in 50 μL of binding buffer, and the plate is vigorously shaken for one hour. The plate is washed four times with 200 μL/well of binding buffer (without BSA and DTT). The bottom of the plate is sealed and 200 μL/well of scintillation cocktail is added. The top of the plate is then sealed and the radioactivity is determined. Formulation and Administration of the Compounds (Compositions) for Use According to the Invention

The subject of another series is KK-Ay mice. Nature of the series: anti-diabetic efficacy in KK-Ay mice (change in serum glucose levels). Conditions: 0.018% (30 mg/kg) dietary admixture in powdered diet, change in serum glucose levels compared to untreated control animals. Format: in vivo. Here is the method: Selected compounds were administered to KK-Ay mice as a 0.018% (30 mg/kg) dietary admixture in powdered diet and evaluated for anti-diabetic efficacy as described (T. Shibata, K. Matsui, K. Nagao, H. Shinkai, F. Yonemori and K. Wakitani 1999; European Journal of Pharmacology 364:211-219). The change in serum glucose levels compared to untreated control animals is exemplified in Table 39.

`O=S(=O)(Nc1cc(Cl)c(Sc2cnc3ccccc3c2)c(Cl)c1)c1ccc(C(F)(F)F)cc1Cl` [Example 87.3] registered a melting point of 225.1 °C. The compound also yielded a concentration for half-maximal inhibition (IC50) on PPARγ of less than 1 µM. Moreover, the “KKAy Glucose” value in the series on KK-Ay mice is listed as “++ ((++) glucose lowering >20%)”.
Regarding `Nc1cc(Cl)c(Oc2nc3ccc(Cl)cc3s2)c(Cl)c1` [Example 364, 3,5-dichloro-4-(6-chloro-benzothiazol-2-yloxy)-phenylamine], at PPARγ, the IC50 is less than 10 µM. Further, the “KKAy Glucose” value with KK-Ay mice was “+ ((+) 10% to 20%)”.
As for `O=S(=O)(Nc1cc(Cl)c(Oc2nc3ccc(Cl)cc3s2)c(Cl)c1)c1ccc(C(F)(F)F)cc1Cl` [Example 365, 2-Chloro-N-[3,5-dichloro-4-(6-chloro-benzothiazol-2-yloxy)-phenyl]-4-trifluoromethyl-benzenesulfonamide], the melting point was 82 to 84 °C. This compound also showed an IC50 at PPARγ of less than 10 µM. Besides, in the series with KK-Ay mice, the “KKAy Glucose” value was “++ ((++) glucose lowering >20%)”.
